In patent US20230346827A1 (priority 2020, published 2023):
Marks after values point to notes of the source that are not given here.

System: rats subjected to sTBI
Assay: sTBI rats, LMW-DS 15 mg/kg s.c.: HPLC of brain purine-pyrimidine/energy metabolites (Example 3)
Format: in vivo, rat
Experimental: The experimental protocol used in this study was approved by the Ethical Committee of the Catholic University of Rome, according to international standards and guidelines for animal care. Male Wistar rats of 300-350 g body weight (b.w.) were fed with standard laboratory diet and water ad libitum in a controlled environment.
They were divided into three groups: • 1) n = 6 animals subjected to sTBI, with drug administration after 30 minutes and sacrifice at 2 days post-TBI (Acute phase 1) • 2) n= 6 animals subjected to sTBI, with drug administration after 30 minutes and sacrifice at 7 days post-TBI (Acute phase 2). • 3) n= 6 animals subjected to sTBI, with drug administration after 3 days and sacrifice at 7 days post-TBI (Chronic phase).
As the anesthetic mixture, animals received 35 mg/kg b.w. ketamine and 0.25 mg/kg b.w. midazolam by i.p. injection. sTBI was induced by dropping a 450 g weight from 2 m height on to the rat head that had been protected by a metal disk previously fixed on the skull, according to the “weight drop” impact acceleration model (Marmarou et al., J Neurosurg. 1994; 80: 291-300). […] At the end of each period of treatment, rats were anesthetized again and then immediately sacrificed.
The drug treatment was a subcutaneous injection of 0.5 ml of LMW-DS (ILB®, Tikomed AB, Viken, Sweden, WO 2016/076780; 15 mg/kg) and administered according to the aforementioned schematic protocol.
An in vivo craniectomy was performed in all animals during anesthesia, after carefully removing the rat’s skull, the brain was exposed and removed with a surgical spatula and quickly dropped in liquid nitrogen. After the wet weight (w.w.) determination, tissue preparation was affected as previously disclosed (Tavazzi et al., Neurosurgery. 2005; 56: 582-589; Vagnozzi et al., Neurosurgery. 2007; 61: 379-388; Tavazzi et al., Neurosurgery. 2007; 61: 390-395; Amorini et al., J Cell Mol Med. 2017; 21: 530-542.). Briefly, whole brain homogenization was performed with 7 ml of ice-cold, nitrogen-saturated, precipitating solution composed by CH3CN + 10 mM KH2PO4, pH 7.40, (3:1; v:v), and using an Ultra-Turrax set at 24,000 rpm/min (Janke & Kunkel, Staufen, Germany). After centrifugation at 20,690 x g, for 10 min at 4° C., the clear supernatants were saved, pellets were supplemented with 3 ml of the precipitating solution and homogenized again as described above. A second centrifugation was performed (20,690 x g, for 10 min at 4° C.), pellets were saved, supernatants combined with those previously obtained, extracted by vigorous agitation with a double volume of HPLC-grade CHCl3 and centrifuged as above. The upper aqueous phases containing water-soluble low-molecular weight compounds were collected, subjected to chloroform washings for two more times (this procedure allowed the removal of all the organic solvent and of any lipid soluble compound from the buffered tissue extracts), adjusted in volumes with 10 mM KH2PO4, pH 7.40, to have ultimately aqueous 10% tissue homogenates and saved at -80° C. until assayed.
Aliquots of each deproteinized tissue samples were filtered through a 0.45 µm HV Millipore filter and loaded (200 µl) onto a Hypersil C-18, 250 × 4.6 mm, 5 µm particle size column, provided with its own guard column (Thermo Fisher Scientific, Rodano, Milan, Italy) and connected to an HPLC apparatus consisting of a Surveyor System (Thermo Fisher Scientific, Rodano, Milan, Italy) with a highly sensitive diode array detector (equipped with a 5 cm light path flow cell) and set up between 200 and 300 nm wavelength. Data acquisition and analysis were performed by a PC using the ChromQuest® software package provided by the HPLC manufacturer. […]

[1] = Acute phase 1: drug 30 min, sacrifice 2 d post-TBI
[2] = Acute phase 2: drug 30 min, sacrifice 7 d post-TBI
[3] = Chronic phase: drug 3 d, sacrifice 7 d post-TBI
[4] = after administration of LMW-DS 15 mg/kg

With sodium salt of dextran sulfate [LMW-DS] the ASCORBIC ACID [1] was 3733.10±277.88^a,d nmol/g (w.w.), the CDP choline [1] was 10.93±3.22^b,h nmol/g (w.w.) and the CMP [1] was 30.12±9.97^a,h nmol/g (w.w.). The CREATININE [1] was 24.55±3.20^b,g,i nmol/g (w.w.), the CYTIDINE [1] was 15.40 ± 3.04 nmol/g (w.w.) and the CYTOSINE [1] was 17.69±2.50^b,d nmol/g (w.w.). For the same substance, the GSH [1] was 2649.50±397.31^a,d nmol/g (w.w.), the GUANINE [1] was 4.80±1.24^b nmol/g (w.w.) and the GUANOSINE [1] was 20.71 ± 5.66 nmol/g (w.w.). The HYPOXANTHINE [1] was 14.47±2.87^a nmol/g (w.w.), the INOSINE [1] was 92.55±31.20^c nmol/g (w.w.) and the MDA [1] was 12.47±2.09^a,c,g nmol/g (w.w.). The NO2 [1] was 216.03±41.74^a nmol/g (w.w.), the URACIL [1] was 14.56 ± 5.44 nmol/g (w.w.) and the URIC ACID [1] was 23.62±3.77^a,d,h nmol/g (w.w.). For the same substance, the URIDINE [1] was 76.35±12.85^a,c nmol/g (w.w.), the XANTHINE [1] was 9.46±2.34^d nmol/g (w.w.) and the adenine [1] was 44.82±6.31 ^a,d,g nmol/g (w.w.). The thymidine [1] was 0.69 ± 0.11 nmol/g (w.w.), the β-PSEUDOURIDINE [1] was 6.65±1.30^g,i nmol/g (w.w.) and the ASCORBIC ACID [2] was 3512.58±224.62^a,e nmol/g (w.w.). For the same substance, the CDP choline [2] was 6.91 ± 1.86 nmol/g (w.w.), the CMP [2] was 15.68±2.12^f,j nmol/g (w.w.) and the CREATININE [2] was 37.27±5.82^a,e,j nmol/g (w.w.). For the same substance, the CYTIDINE [2] was 16.18±4.21^e nmol/g (w.w.), the CYTOSINE [2] was 15.70±4.10^f nmol/g (w.w.) and the GSH [2] was 2821.50±242.82^a,e nmol/g (w.w.). The GUANINE [2] was 4.73 ± 1.07 nmol/g (w.w.), the GUANOSINE [2] was 17.90±3.24^j nmol/g (w.w.) and the HYPOXANTHINE [2] was 12.90±2.58^a,j nmol/g (w.w.). For the same substance, the INOSINE [2] was 85.52±20.36^e nmol/g (w.w.), the MDA [2] was 4.82±1.73^a,e,i nmol/g (w.w.) and the NO2 [2] was 226.40±30.95^b nmol/g (w.w.). For the same substance, the URACIL [2] was 19.40±7.52^a,e nmol/g (w.w.), the URIC ACID [2] was 19.17±2.15^a,h,i nmol/g (w.w.) and the URIDINE [2] was 63.02±9.66^b,e nmol/g (w.w.). The XANTHINE [2] was 10.41±2.11^f nmol/g (w.w.), the adenine [2] was 58.16±6.36^a,f nmol/g (w.w.) and the thymidine [2] was 0.49±0.20^f nmol/g (w.w.). The β-PSEUDOURIDINE [2] was 13.26±3.16^a,e,j nmol/g (w.w.), the ASCORBIC ACID [3] was 3375.03±856.41 ^a,e nmol/g (w.w.) and the CDP choline [3] was 8.37 ± 2.19 nmol/g (w.w.). The CMP [3] was 20.51±3.73^a,f nmol/g (w.w.), the CREATININE [3] was 51.25±10.17^a,f nmol/g (w.w.) and the CYTIDINE [3] was 14.71±2.83^e nmol/g (w.w.). For the same substance, the CYTOSINE [3] was 15.58±2.50^b,f nmol/g (w.w.), the GSH [3] was 2608.67±358.07^a,e nmol/g (w.w.) and the GUANINE [3] was 5.31±1.04^b nmol/g (w.w.). For the same substance, the GUANOSINE [3] was 28.87±7.60^a,f nmol/g (w.w.), the HYPOXANTHINE [3] was 17.97±4.49^a nmol/g (w.w.) and the INOSINE [3] was 105.81±25.57^f nmol/g (w.w.). The MDA [3] was 11.62±3.90^a,e nmol/g (w.w.), the NO2 [3] was 217.67±55.04^a nmol/g (w.w.) and the URACIL [3] was 16.57±2.99^a f nmol/g (w.w.). The URIC ACID [3] was 27.77±3.60^a nmol/g (w.w.), the URIDINE [3] was 63.28±3.37^f nmol/g (w.w.) and the XANTHINE [3] was 9.35±0.83^f nmol/g (w.w.). For the same substance, the adenine [3] was 52.94±8.59^a,f nmol/g (w.w.), the thymidine [3] was 0.71 ± 0.11 nmol/g (w.w.) and the β-PSEUDOURIDINE [3] was 18.62±2.80^a nmol/g (w.w.). For the same substance, the nitrate concentrations (acute and chronic phases of sTBI) was “significantly decreased”, the MDA levels [4] was “significant reduction” and the “ascorbic acid and GSH levels” value [4] was “significant improvement”. For the same substance, the “NAA and its substrates, levels” value (after sTBI, LMW-DS 15 mg/kg) was “significant improvements”.
